Consider 22 molecules from patent US10087178B2, “Substituted spiropyrido[1,2-a]pyrazine derivative and medicinal use thereof as HIV integrase inhibitor” (priority 2012, dated 2018).

For this assay, the system named is HIV-1 NL4-3 strain. As to the kind of experiment: Evaluation of antiviral activity: acute infection system of MT-4 cell with HIV-1 NL4-3 strain. The assay is classed as cell-based.
The mark [1] stands for this setting: Human immunodeficiency virus 1, NL43, MT4, 120 h, antiviral activity, MT-4 cells infected with HIV-1 NL4-3 (MOI 0.05), 5 days culture, Cell Titer-Glo luminescence, read-out: EC50.
The mark [2] stands for this setting: Human immunodeficiency virus 1, NL43, MT4, 120 h, MT-4 cells infected with HIV-1 NL4-3 strain (MOI 0.05), cultured 5 days, Cell Titer-Glo, read-out: antiviral activity (EC50).
The mark [3] stands for this setting: Human immunodeficiency virus 1, NL43, MT4, 120 h, read-out: antiviral activity (EC50), MT-4 cells infected with HIV-1 NL4-3 strain (MOI 0.05), cultured 5 days, Cell Titer-Glo.

pEC50: −log10 of the molar value. Where a name gives a salt, the structure may show the parent alone. Read-outs that look alike come from different tables or passages of the source.

For `CC(C)N1CC2(CC(O)C2)n2cc(C(=O)NCc3ccc(F)cc3F)c(=O)c(O)c2C1=O` (single isomer, unassigned) [Example S3, N-(2,4-difluorobenzyl)- trans-3,9′-dihydroxy-2′-isopropyl-1′,8′-dioxo-1′,2′,3′,8′-tetrahydrospiro[cyclobutane-1,4′-pyrido[1,2-a]pyrazine]-7′-carboxamide hydrobromide], the pEC50 under setting [1] was 7.96.
On to `CC(=O)NC[C@H]1C[C@]2(CN(C(C)C)C(=O)c3c(O)c(=O)c(C(=O)NCc4ccc(F)cc4F)cn32)C1` [Example S38, cis-3-(acetamidomethyl)-N-(2,4-difluorobenzyl)-9′-hydroxy-2′-isopropyl-1′,8′-dioxo-1′,2′,3′,8′-tetrahydrospiro[cyclobutane-1,4′-pyrido[1,2-a]pyrazine]-7′-carboxamide hydrochloride], for which the pEC50 under setting [2] was 7.30.
As for `COC[C@H]1C[C@]2(CN(C)C(=O)c3c(O)c(=O)c(C(=O)NCc4cccc(Cl)c4F)cn32)C1` [Example 32, N-(3-chloro-2-fluorobenzyl)-9′-hydroxy-cis-3-(methoxymethyl)-2′-methyl-1′,8′-dioxo-1′,2′,3′,8′-tetrahydrospiro[cyclobutane-1,4′-pyrido[1,2-a]pyrazine]-7′-carboxamide monosulfate], for the setting “MT-4 cells infected with HIV-1 NL4-3 strain (MOI 0.05), cultured 5 days, Cell Titer-Glo, read-out: antiviral activity (EC50)”, the pEC50 was 9.05.
As for `CC(C)N1C[C@]2(C[C@H](OCc3ccccc3)C2)n2cc(C(=O)NCc3ccc(F)cc3F)c(=O)c(O)c2C1=O` [Example S2, cis-3-(benzyloxy)-N-(2,4-difluorobenzyl)-9′-hydroxy-2′-isopropyl-1′,8′-dioxo-1′,2′,3′,8′-tetrahydrospiro[cyclobutane-1,4′-pyrido[1,2-a]pyrazine]-7′-carboxamide hydrochloride], the pEC50 under setting [1] was 8.00.
As for `CC(C)N1C[C@@]2(C[C@H]2CO)n2cc(C(=O)NCc3cccc(Cl)c3F)c(=O)c(O)c2C1=O` [Example T28, (1S,2R)-N-(3-chloro-2-fluorobenzyl)-9′-hydroxy-2-(hydroxymethyl)-2′-isopropyl-1′,8′-dioxo-1′,2′,3′,8′-tetrahydrospiro[cyclopropane-1,4′-pyrido[1,2-a]pyrazine]-7′-carboxamide hydrochloride], the pEC50 under setting [3] was 8.28.
`CN1C[C@]2(C[C@@H](O)C2)n2cc(C(=O)NCc3ccc(F)cc3F)c(=O)c(O)c2C1=O` [Example S11, N-(2,4-difluorobenzyl)- trans-3,9′-dihydroxy-2′-methyl-1′,8′-dioxo-1′,2′,3′,8′-tetrahydrospiro[cyclobutane-1,4′-pyrido[1,2-a]pyrazine]-7′-carboxamide hydrobromide]: the pEC50 under setting [1] is 7.60.
With `CCN1C(=O)c2c(O)c(=O)c(C(=O)NCc3cccc(Cl)c3F)cn2C[C@]12C[C@H]2CO` [Example T46, (1R,2R)-N-(3-chloro-2-fluorobenzyl)-2′-ethyl-9′-hydroxy-2-(hydroxymethyl)-1′,8′-dioxo-1′,2′,4′,8′-tetrahydrospiro[cyclopropane-1,3′-pyrido[1,2-a]pyrazine]-7′-carboxamide hydrochloride], the pEC50 under setting [3] is 8.47.
As for `CCN1C[C@@]2(C[C@@H]2COC)n2cc(C(=O)NCc3ccc(F)cc3F)c(=O)c(O)c2C1=O` [Example T2, (1S,2S)-N-(2,4-difluroobenzyl)-2′-ethyl-9′-hydroxy-2-(methoxymethyl)-1′,8′-dioxo-1′,2′,3′,8′-tetrahydrospiro[cyclopropane-1,4′-pyrido[1,2-a]pyrazine]-7′-carboxamide hydrochloride], the pEC50 under setting [2] is 8.38.
As for `CCCO[C@H]1C[C@@]2(CN(C)C(=O)c3c(O)c(=O)c(C(=O)NCc4cccc(Cl)c4F)cn32)C1` [Example S42, N-(3-chloro-2-fluorobenzyl)-9′-hydroxy-2′-methyl-1′,8′-dioxo-trans-3-propoxy-1′,2′,3′,8′-tetrahydrospiro[cyclobutane-1,4′-pyrido[1,2-a]pyrazine]-7′-carboxamide hydrochloride], the pEC50 under setting [2] is 8.37.
For `CCOc1cc(Cl)c(F)c(CNC(=O)c2cn3c(c(O)c2=O)C(=O)N(C)C[C@@]32C[C@@H]2COC)c1` [Example T25, (1S,2S)-N-(3-chloro-5-ethoxy-2-fluorobenzyl)-9′-hydroxy-2-(methoxymethyl)-2′-methyl-1′,8′-dioxo-1′,2′,3′,8′-tetrahydrospiro[cyclopropane-1,4′-pyrido[1,2-a]pyrazine]-7′-carboxamide hydrochloride], the pEC50 under setting [3] is 8.15.
As to `CCOC[C@H]1C[C@@]12Cn1cc(C(=O)NCc3ccc(F)cc3F)c(=O)c(O)c1C(=O)N2C(C)C` [Example T43, (1S,2S)-N-(2,4-difluorobenzyl)-2-(ethoxymethyl)-9′-hydroxy-2′-isopropyl-1′,8′-dioxo-1′,2′,4′,8′-tetrahydrospiro[cyclopropane-1,3′-pyrido[1,2-a]pyrazine]-7′-carboxamide], under setting [2], the pEC50 is 8.28.
Same read-out and setting: the figure for `COC[C@H]1C[C@]2(CN(C)C(=O)c3c(OC(=O)c4cccc(C(=O)O)c4)c(=O)c(C(=O)NCc4cccc(Cl)c4F)cn32)C1` [Example 40, Monosodium 3-{[7′-(3-chloro-2-fluorobenzylcarbamoyl)-cis-3-(methoxymethyl)-2‘-methyl-’,8′-dioxo-1′,2′,3′,8′-tetrahydrospiro[cyclobutane-1,4′-pyrido[1,2-a]pyrazin]-9′-yloxy]carbonyl}benzoate] is 9.00; for `CO[C@H]1C[C@]2(CN(C)C(=O)c3c(OC(=O)C(C)C)c(=O)c(C(=O)NCc4cccc(Cl)c4F)cn32)C1` [Example S66, 7′-(3-chloro-2-fluorobenzylcarbamoyl)-cis-3-methoxy-2′-methyl-1′,8′-dioxo-1′,2′,3′,8′-tetrahydrospiro[cyclobutane-1,4′-pyrido[1,2-a]pyrazin]-9′-yl isobutyrate] it is 9.05.
On the same count and under the same terms, in the case of `CCN1C[C@@]2(C[C@@H]2C(=O)NC)n2cc(C(=O)NCc3ccc(F)cc3F)c(=O)c(O)c2C1=O` [Example T8, (1S,2S)-N^7′-(2,4-difluorobenzyl)-2′-ethyl-9′-hydroxy-N^2-methyl-1′,8′-dioxo-1′,2′,3′,8′-tetrahydrospiro[cylcopropane-1,4′-pyrido[1,2-a]pyrazine]-2,7′-dicarboxamide hydrochloride] it was 8.21.
As for `CO[C@H]1C[C@]2(CN(C)C(=O)c3c(O)c(=O)c(C(=O)NCc4ccc(F)cc4F)cn32)C1` [Example S14, N-(2,4-difluorobenzyl)-9′-hydroxy-cis-3-methoxy-2′-methyl-1′,8′-dioxo-1′,2′,3′,8′-tetrahydrospiro[cyclobutane-1,4′-pyrido[1,2-a]pyrazine]-7′-carboxamide hydrochloride], the pEC50 under setting [1] is 8.41.
With `CCN1C[C@]2(C[C@@H](COC)C2)n2cc(C(=O)NCc3cccc(Cl)c3F)c(=O)c(O)c2C1=O` [Example S45, N-(3-chloro-2-fluorobenzyl)-2′-ethyl-9′-hydroxy-trans-3-(methoxymethyl)-1′,8′-dioxo-1′,2′,3′,8′-tetrahydrospiro[cyclobutane-1,4′-pyrido[1,2-a]pyrazine]-7′-carboxamide hydrochloride], the pEC50 under setting [2] was 8.41.
Take `CCOC[C@@H]1C[C@]12CN(C)C(=O)c1c(O)c(=O)c(C(=O)NCc3ccc(OC)c(Cl)c3F)cn12` [Example T35, (1R,2R)-N-(3-chloro-2-fluoro-4-methoxybenzyl)-2-(ethoxymethyl)-9′-hydroxy-2′-methyl-1′,8′-dioxo-1′,2′,3′,8′-tetrahydrospiro[cyclopropane-1,4′-pyrido[1,2-a]pyrazine]-7′-carboxamide hydrochloride]: under setting [3], the pEC50 was 7.77.
Same read-out and setting: the figure for `CCN1C[C@]2(C[C@H]2COC)n2cc(C(=O)NCc3cccc(Cl)c3F)c(=O)c(O)c2C1=O` [Example T20, (1R,2R)-N-(3-chloro-2-fluorobenzyl)-2′-ethyl-9′-hydroxy-2-(methoxymethyl)-1′,8′-dioxo-1′,2′,3′,8′-tetrahydrospiro[cyclopropane-1,4′-pyrido[1,2-a]pyrazine]-7′-carboxamide hydrochloride] is 8.46.
Take `CCN1C[C@]2(C[C@H](COC)C2)n2cc(C(=O)NCc3cccc(Cl)c3F)c(=O)c(O)c2C1=O` [Example S47, N-(3-chloro-2-fluorobenzyl)-2′-ethyl-9′-hydroxy-cis-3-(methoxymethyl)-1′,8′-dioxo-1′,2′,3′,8′-tetrahydrospiro[cyclobutane-1,4′-pyrido[1,2-a]pyrazine]-7′-carboxamide hydrochloride]: under setting [2], the pEC50 was 8.46.
`CCN1C(=O)c2c(O)c(=O)c(C(=O)NCc3cccc(Cl)c3F)cn2C[C@@]12C[C@@H]2COC` [Example 17, (1S,2S)—N-(3-chloro-2-fluorobenzyl)-2′-ethyl-9′-hydroxy-2-(methoxymethyl)-1′,8′-dioxo-1′,2′,4′,8′-tetrahydrospiro[cyclopropane-1,3′-pyrido[1,2-a]pyrazine]-7′-carboxamide]: the pEC50 under setting [1] was 8.47.
For `CCO[C@H]1C[C@]2(Cn3cc(C(=O)NCc4cccc(Cl)c4F)c(=O)c(O)c3C(=O)N2CC)C1` [Example S57, N-(3-chloro-2-fluorobenzyl)- cis-3-ethoxy-2′-ethyl-9′-hydroxy-1′,8′-dioxo-1′,2′,4′,8′-tetrahydrospiro[cyclobutane-1,3′-pyrido[1,2-a]pyrazine]-7′-carboxamide hydrochloride], the pEC50 under setting [2] was 8.33.
Consider `CN1C[C@]2(C[C@H](CO)C2)n2cc(C(=O)NCc3cccc(Cl)c3F)c(=O)c(O)c2C1=O` [Example S37, N-(3-chloro-2-fluorobenzyl)-9′-hydroxy-cis-3-(hydroxymethyl)-2′-methyl-1′,8′-dioxo-1′,2′,3′,8′-tetrahydrospiro[cyclobutane-1,4′-pyrido[1,2-a]pyrazine]-7′-carboxamide hydrochloride], for which, under setting [2], the pEC50 is 8.42.

Broadly, the pEC50 is the EC50 on a negative log10 scale, so that one unit is a factor of ten.
